Reference: patent publication US8952024B2, “Herbicidal pyrimidone derivatives” (E I du Pont de Nemours and Company, priority 2009, dated 2015)

What was measured:
Assay in all cases: Test B pre-/postemergence plant response
Type in all cases: in vivo
corn (Zea mays) = tested on: corn (Zea mays)
Summary of the method: (§1)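 Seeds were sown in loam soil/sand blend and treated preemergence with compound in non-phytotoxic solvent mixture containing surfactant; postemergence sprays, same formulation, went onto plants 2 to 18 cm (1- to 4-leaf stage) in peat-based planting medium. Greenhouse 13 to 15 days, then visual rating versus untreated controls, 0 (no effect) to 100 (complete control).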

[1] = tested on: pigweed (Amaranthus retroflexus)
Summary of the method: as §1

[2] = tested on: velvetleaf (Abutilon theophrasti)
Summary of the method: as §1

[3] = tested on: wheat (Triticum aestivum)
Summary of the method: as §1

[4] = tested on: large crabgrass (Digitaria sanguinalis)
Summary of the method: as §1

[5] = tested on: ragweed (common ragweed, Ambrosia elatior)
Summary of the method: as §1

soybean (Glycine max) = tested on: soybean (Glycine max)
Summary of the method: as §1

kochia (Kochia scoparia) = details: Postemergence; for Plant response rating, Kochia: scale 0 (no effect) to 100 (complete control)
Summary of the method: as §1

[6] = tested on: yellow nutsedge (Cyperus esculentus)
Summary of the method: as §1

[7] = tested on: blackgrass (Alopecurus myosuroides)
Summary of the method: as §1

[8] = tested on: goosegrass (Eleusine indica)
Summary of the method: as §1

wild oat (Avena fatua) = tested on: wild oat (Avena fatua)
Summary of the method: as §1

[9] = tested on: lambsquarters (Chenopodium album)
Summary of the method: as §1

[10] = tested on: Surinam grass (Brachiaria decumbens)
Summary of the method: as §1

[11] = tested on: johnsongrass (Sorghum halepense)
Summary of the method: as §1

[12] = tested on: Italian ryegrass (Lolium multiflorum)
Summary of the method: as §1

[13] = tested on: woolly cupgrass (Eriochloa villosa)
Summary of the method: as §1

[14] = tested on: downy bromegrass (Bromus tectorum)
Summary of the method: as §1

[15] = 250 g ai/ha, Preemergence, 0 to 100 scale
[16] = Postemergence, 31 g ai/ha, scale 0 to 100 (0 no effect, 100 complete control)
[17] = Postemergence, 62 g ai/ha, scale 0 (no effect) to 100 (complete control), 13 to 15 days
[18] = Postemergence, 125 g ai/ha, visual rating after 13 to 15 days, scale 0 (no effect) to 100 (complete control)
[19] = Postemergence, 250 g ai/ha, scale 0 to 100
[20] = Preemergence, 31 g ai/ha, scale 0 to 100 (0 no effect, 100 complete control)
[21] = Preemergence, 62 g ai/ha, scale 0 to 100, 0 no effect, 100 complete control
[22] = Preemergence, 125 g ai/ha, 0 to 100 scale

In the case of O=C1CCCC(O)=C1C(=O)c1cnc(-c2cccc(Cl)c2)n(-c2ccccc2)c1=O [Compound 34], the “Plant response rating, Corn” value (corn (Zea mays); [15]) is reported as 0, the “Plant response rating, Corn” value (corn (Zea mays); [16]) is reported as 0 and the “Plant response rating, Corn” value (corn (Zea mays); [17]) is reported as 0. For the same compound, the “Plant response rating, Corn” value (corn (Zea mays); [18]) was 45, the “Corn plant response rating” value (corn (Zea mays); [19]) was 50 and the “Plant response rating, Corn” value (corn (Zea mays); [20]) was 0. For the same compound, the “Plant response rating, Corn” value (corn (Zea mays); [21]) was 0, the “Corn plant response rating” value (corn (Zea mays); [22]) was 0 and the “Plant response rating, Pigweed” value [1, 15] was 100. The “Plant response rating, Pigweed” value [1, 17] was 90, the “Plant response rating, Pigweed” value [1, 18] was 98 and the “Plant response rating, Pigweed” value [1, 20] was 100. The “Plant response rating, Pigweed” value [1, 21] was 100, the “Pigweed plant response rating” value [1, 22] was 100 and the “Plant response rating, Velvetleaf” value [2, 15] was 100. For the same compound, the “Plant response rating, Velvetleaf” value [2, 17] was 95, the “Plant response rating, Velvetleaf” value [2, 18] was 98 and the “Plant response rating, Velvetleaf” value [2, 20] was 75. The “Plant response rating, Velvetleaf” value [2, 21] was 85, the “Velvetleaf plant response rating” value [2, 22] was 95 and the “Plant response rating, Wheat” value [3, 15] was 0. The “Plant response rating, Wheat” value [3, 17] was 10, the “Plant response rating, Wheat” value [3, 18] was 35 and the “Plant response rating, Wheat” value [3, 21] was 0. The “Wheat plant response rating” value [3, 22] was 0, the “Plant response rating, Crabgrass, Large” value [4, 15] was 100 and the “Plant response rating, Crabgrass, Large” value [4, 16] was 80. The “Plant response rating, Crabgrass, Large” value [4, 17] was 85, the “Plant response rating, Crabgrass, Large” value [4, 18] was 95 and the “Crabgrass, Large plant response rating” value [4, 19] was 98. The “Plant response rating, Crabgrass, Large” value [4, 20] was 55, the “Plant response rating, Crabgrass, Large” value [4, 21] was 100 and the “Crabgrass, Large plant response rating” value [4, 22] was 100. The “Plant response rating, Ragweed” value [5, 15] was 90, the “Plant response rating, Ragweed” value [5, 17] was 85 and the “Plant response rating, Ragweed” value [5, 18] was 95. For the same compound, the “Plant response rating, Ragweed” value [5, 20] was 75, the “Plant response rating, Ragweed” value [5, 21] was 80 and the “Ragweed plant response rating” value [5, 22] was 90. For the same compound, the “Plant response rating, Soybean” value (soybean (Glycine max); [15]) was 80, the “Plant response rating, Soybean” value (soybean (Glycine max); [17]) was 95 and the “Plant response rating, Soybean” value (soybean (Glycine max); [18]) was 95. For the same compound, the “Plant response rating, Soybean” value (soybean (Glycine max); [20]) was 0, the “Plant response rating, Soybean” value (soybean (Glycine max); [21]) was 45 and the “Soybean plant response rating” value (soybean (Glycine max); [22]) was 65. The “Plant response rating, Kochia” value (kochia (Kochia scoparia); 62 g ai/ha, 13 to 15 days) was 95, the “Plant response rating, Kochia” value (kochia (Kochia scoparia); 125 g ai/ha, visual rating after 13 to 15 days) was 100 and the “Kochia plant response rating” value (kochia (Kochia scoparia); 250 g ai/ha, scale 0 to 100) was 100. The “Plant response rating, Nutsedge, Yellow” value [6, 15] was 90, the “Plant response rating, Nutsedge, Yellow” value [6, 17] was 25 and the “Plant response rating, Nutsedge, Yellow” value [6, 18] was 55. For the same compound, the “Plant response rating, Nutsedge, Yellow” value [6, 20] was 10, the “Plant response rating, Nutsedge, Yellow” value [6, 21] was 45 and the “Nutsedge, Yellow plant response rating” value [6, 22] was 75. For the same compound, the “Plant response rating, Blackgrass” value [7, 15] was 50, the “Plant response rating, Blackgrass” value [7, 16] was 0 and the “Plant response rating, Blackgrass” value [7, 17] was 5. For the same compound, the “Plant response rating, Blackgrass” value [7, 18] was 10, the “Blackgrass plant response rating” value [7, 19] was 40 and the “Plant response rating, Blackgrass” value [7, 20] was 0. For the same compound, the “Plant response rating, Blackgrass” value [7, 21] was 5, the “Blackgrass plant response rating” value [7, 22] was 50 and the “Plant response rating, Goosegrass” value [8, 15] was 100. For the same compound, the “Plant response rating, Goosegrass” value [8, 17] was 80, the “Plant response rating, Goosegrass” value [8, 18] was 90 and the “Goosegrass plant response rating” value [8, 19] was 95. The “Plant response rating, Goosegrass” value [8, 20] was 95, the “Goosegrass plant response rating” value [8, 22] was 100 and the “Plant response rating, Oat, Wild” value (wild oat (Avena fatua); [15]) was 60. The “Plant response rating, Oat, Wild” value (wild oat (Avena fatua); [17]) was 50, the “Plant response rating, Oat, Wild” value (wild oat (Avena fatua); [18]) was 60 and the “Plant response rating, Oat, Wild” value (wild oat (Avena fatua); [20]) was 10. For the same compound, the “Plant response rating, Oat, Wild” value (wild oat (Avena fatua); [21]) was 10, the “Oat, Wild plant response rating” value (wild oat (Avena fatua); [22]) was 30 and the “Plant response rating, Lambsquarters” value [9, 15] was 100. For the same compound, the “Plant response rating, Lambsquarters” value [9, 17] was 98, the “Plant response rating, Lambsquarters” value [9, 18] was 100 and the “Lambsquarters plant response rating” value [9, 19] was 100. The “Plant response rating, Lambsquarters” value [9, 20] was 100, the “Plant response rating, Lambsquarters” value [9, 21] was 100 and the “Lambsquarters plant response rating” value [9, 22] was 100. The “Plant response rating, Surinam Grass” value [10, 15] was 90, the “Plant response rating, Surinam Grass” value [10, 17] was 75 and the “Plant response rating, Surinam Grass” value [10, 18] was 80. The “Plant response rating, Surinam Grass” value [10, 20] was 5, the “Plant response rating, Surinam Grass” value [10, 21] was 60 and the “Surinam Grass plant response rating” value [10, 22] was 65. The “Plant response rating, Johnsongrass” value [11, 15] was 100, the “Plant response rating, Johnsongrass” value [11, 17] was 90 and the “Plant response rating, Johnsongrass” value [11, 18] was 95. For the same compound, the “Johnsongrass plant response rating” value [11, 19] was 100, the “Plant response rating, Johnsongrass” value [11, 20] was 20 and the “Plant response rating, Johnsongrass” value [11, 21] was 75. For the same compound, the “Johnsongrass plant response rating” value [11, 22] was 98, the “Plant response rating, Ryegrass, Italian” value [12, 15] was 10 and the “Plant response rating, Ryegrass, Italian” value [12, 17] was 10. For the same compound, the “Plant response rating, Ryegrass, Italian” value [12, 18] was 20, the “Plant response rating, Ryegrass, Italian” value [12, 20] was 0 and the “Plant response rating, Ryegrass, Italian” value [12, 21] was 0. For the same compound, the “Ryegrass, Italian plant response rating” value [12, 22] was 5, the “Plant response rating, Cupgrass, Woolly” value [13, 15] was 100 and the “Plant response rating, Cupgrass, Woolly” value [13, 16] was 80. For the same compound, the “Plant response rating, Cupgrass, Woolly” value [13, 17] was 80, the “Plant response rating, Cupgrass, Woolly” value [13, 18] was 90 and the “Cupgrass, Woolly plant response rating” value [13, 19] was 95. For the same compound, the “Plant response rating, Cupgrass, Woolly” value [13, 20] was 100, the “Plant response rating, Cupgrass, Woolly” value [13, 21] was 100 and the “Cupgrass, Woolly plant response rating” value [13, 22] was 100. The “Plant response rating, Bromegrass, Downy” value [14, 15] was 80, the “Plant response rating, Bromegrass, Downy” value [14, 16] was 40 and the “Plant response rating, Bromegrass, Downy” value [14, 17] was 50. The “Plant response rating, Bromegrass, Downy” value [14, 18] was 50, the “Bromegrass, Downy plant response rating” value [14, 19] was 50 and the “Plant response rating, Bromegrass, Downy” value [14, 21] was 0. The “Bromegrass, Downy plant response rating” value [14, 22] was 10.
